Source: patent publication EP0183129A1, “Quinolonecarboxylic acid derivatives” (KYORIN PHARMACEUTICAL CO., LTD., priority 1984, dated 1986)
In brackets after ≈: the same amount, converted by molar mass. Structures can show the parent of a compound that is named as a salt. Where two headings read alike, the source gives them in different places.

Columns and labels:
[1] = tested on: Staphylococcus aureus 209 P; experiment: In vitro antibacterial activity, MIC (standard strain); assay type: cell-based
[2] = tested on: S. aureus IID 670 (Terajima); experiment: as above; assay type: cell-based, Staphylococcus aureus; settings: Staphylococcus aureus
[3] = tested on: Streptococcus pyogenes S-8; experiment: as above; assay type: cell-based; settings: S8
S. pyogenes IID 692 = experiment: as above; assay type: cell-based; settings: Streptococcus pyogenes, IID692; S. pyogenes IID 692; 10^6 cells/ml; standard strain; read-out: MIC
S. pneumoniae IID 552 = experiment: as above; assay type: cell-based; settings: Streptococcus pneumoniae, IID552; S. pneumoniae IID 552; 10^6 cells/ml; standard strain; read-out: MIC
[4] = tested on: Escherichia coli NIHJ JC-2; experiment: as above; assay type: cell-based; settings: Escherichia coli
[5] = tested on: Proteus vulgaris IFO 3167; experiment: as above; assay type: cell-based; settings: IFO3167; Proteus vulgaris IFO 3167; 10^6 cells/ml; standard strain; read-out: MIC
P. mirabilis IID 994 = experiment: as above; assay type: cell-based; settings: Proteus mirabilis, IID994; P. mirabilis IID 994; 10^6 cells/ml; standard strain; read-out: MIC
[6] = tested on: Morganella morganii IID 602; experiment: as above; assay type: cell-based; settings: IID602; Morganella morganii IID 602; 10^6 cells/ml; standard strain; read-out: MIC
[7] = tested on: Enterobacter cloacae IID 977; experiment: as above; assay type: cell-based; settings: Enterobacter cloacae, IID977, Enterobacter cloacae IID 977; 10^6 cells/ml; standard strain; read-out: MIC
[8] = tested on: Klebsiella pneumoniae KY(GN)6445; experiment: as above; assay type: cell-based; settings: Klebsiella pneumoniae KY(GN)6445; 10^6 cells/ml; standard strain; read-out: MIC
[9] = tested on: Serratia marcescens IID 618; experiment: as above; assay type: cell-based; settings: Serratia marcescens, IID618, Serratia marcescens IID 618; 10^6 cells/ml; standard strain; read-out: MIC
P. aeruginosa IFO 12689 = experiment: as above; assay type: cell-based, Pseudomonas aeruginosa; settings: Pseudomonas aeruginosa, IFO12689; P. aeruginosa IFO 12689; 10^6 cells/ml; standard strain; read-out: MIC
B. fragilis 25285 = experiment: as above; assay type: cell-based, Bacteroides fragilis; settings: Bacteroides fragilis, 25285, B. fragilis 25285; 10^6 cells/ml; standard strain; read-out: MIC
[10] = tested on: Clostridium perfringens KYA 13123; experiment: microbe, parasite or virus in culture; assay type: cell-based; settings: KYA13123
S. pneumoniae 28 = experiment: In vitro antibacterial activity, MIC (clinical isolates); assay type: cell-based; settings: Streptococcus pneumoniae, 10^6 cells/ml, clinical isolate
S. pneumoniae 2950 = experiment: as above; assay type: cell-based; settings: Streptococcus pneumoniae
S. pneumoniae 3227 = experiment: as above; assay type: cell-based; settings: Streptococcus pneumoniae
S. pyogenes 4372 = experiment: as above; assay type: cell-based; settings: Streptococcus pyogenes
S. agalactiae 4394 = experiment: as above; assay type: cell-based; settings: Streptococcus agalactiae; S. agalactiae 4394; 10^6 cells/ml; clinical isolate; read-out: MIC
S. agalactiae 4368 = experiment: as above; assay type: cell-based; settings: Streptococcus agalactiae; S. agalactiae 4368; 10^6 cells/ml; clinical isolate; read-out: MIC
S. agalactiae 4468 = experiment: as above; assay type: cell-based; settings: Streptococcus agalactiae; S. agalactiae 4468; 10^6 cells/ml; clinical isolate; read-out: MIC
S. faecalis 214 = experiment: as above; assay type: cell-based; settings: Enterococcus faecalis; S. faecalis 214; 10^6 cells/ml; clinical isolate; read-out: MIC
S. faecalis 401 = experiment: as above; assay type: cell-based; settings: Enterococcus faecalis; S. faecalis 401; 10^6 cells/ml; clinical isolate; read-out: MIC
S. faecalis 402 = experiment: as above; assay type: cell-based; settings: Enterococcus faecalis; S. faecalis 402; 10^6 cells/ml; clinical isolate; read-out: MIC
S. aureus Smith = experiment: In vivo antibacterial activity against systemic infection in mice; parameters: species or system mice (ICR-S); settings: Staphylococcus aureus, po, mice (ICR-S), an hour after intraperitoneal infection, challenge dose 7 x 10^5 cfu/mouse, n=5, read-out: ED50 against S. aureus Smith
Method: (§1) Experiment-2 In vivo antibacterial activity against systemic infection in mice (ICR-S)
(§2) The infections were produced by intraperitoneal injection of a suspension of the bacterial culture corresponding to the germ studied. The products were administered orally at an hour after the infection.

S. pneumoniae S-4288 = experiment: as above; parameters: species or system mice (ICR-S); settings: Streptococcus pneumoniae, S4288; mice (ICR-S); oral, an hour after intraperitoneal infection; challenge dose 7.5 x 10^4 ~ 4.8 x 10^6 cfu/mouse; read-out: ED50 S. pneumoniae S-4288
Method: as §1, §2

M. pneumoniae Mac. = experiment: In vitro antibacterial activity against Mycoplasma, MIC; assay type: cell-based; settings: Mycoplasmoides pneumoniae, 120 h; M. pneumoniae Mac.; no visible growth after incubation for 5 days; read-out: MIC
Excerpt: Experiment-3 In vitro antibacterial activity against Mycoplasma

[11] = Staphylococcus aureus 209 P, 10^6 cells/ml, standard strain, read-out: MIC
[12] = IID670, S. aureus IID 670 (Terajima), 10^6 cells/ml, standard strain, read-out: MIC
[13] = Streptococcus pyogenes S-8, 10^6 cells/ml, standard strain, read-out: MIC
[14] = NIHJJC2, Escherichia coli NIHJ JC-2, 10^6 cells/ml, standard strain, read-out: MIC
[15] = S. pneumoniae 3227, 10^6 cells/ml, clinical isolate, read-out: MIC
[16] = S. pyogenes 4372, 10^6 cells/ml, clinical isolate, read-out: MIC

SMILES	MIC [1, 11]	MIC [2, 12]	MIC (S. pyogenes IID 692)	MIC (S. pneumoniae IID 552)	MIC [5]	MIC (P. mirabilis IID 994)	MIC [6]	MIC [7]	MIC [8]	MIC [9]	MIC (P. aeruginosa IFO 12689)	MIC (B. fragilis 25285)	MIC [10]	MIC (S. pneumoniae 28)	MIC (S. agalactiae 4394)	MIC (S. agalactiae 4368)	MIC (S. agalactiae 4468)	MIC (S. faecalis 214)	MIC (S. faecalis 401)	MIC (S. faecalis 402)	other results
NCC1CCN(c2c(F)cc3c(=O)c(C(=O)O)cn(C4CC4)c3c2F)C1 (stereo not drawn) [Example 1, 7-(3-Aminomethyl-l-pyrrolidinyl)-l-cyclopropyl-6,8-difluoro-1,4-dihydro-4-oxo-3-quinolinecarboxylic acid hydrochloride]	0.05 µg/mL	0.05 µg/mL	0.05 µg/mL	0.05 µg/mL	0.025 µg/mL	0.05 µg/mL	0.1 µg/mL	0.1 µg/mL	0.05 µg/mL	0.2 µg/mL	0.39 µg/mL	0.39 µg/mL	0.39 µg/mL	0.05 µg/mL	0.1 µg/mL	0.05 µg/mL	0.05 µg/mL	0.1 µg/mL	0.1 µg/mL	0.1 µg/mL	MIC [3, 13]: 0.05 µg/mL; MIC [4, 14]: 0.025 µg/mL; MIC (S. pneumoniae 2950; S. pneumoniae 2950, 10^6 cells/ml, clinical isolate, read-out: MIC): 0.05 µg/mL; MIC (S. pneumoniae 3227; [15]): 0.05 µg/mL; MIC (S. pyogenes 4372; [16]): 0.05 µg/mL; ED50 (S. aureus Smith): 0.9 mg/kg
NCC1CCN(c2c(F)cc3c(=O)c(C(=O)O)cn(C4CC4)c3c2Cl)C1 (stereo not drawn) [Example 14, 8-Chloro-l-cyclopropyl-6-fluoro-l,4-dihydro-7-(3-aminomethyl-l-pyrrolidinyl)-4-oxo-3-quinolinecarboxylic acid hydrochloride]	–	–	0.05 µg/mL	0.025 µg/mL	0.025 µg/mL	0.025 µg/mL	0.05 µg/mL	0.05 µg/mL	0.025 µg/mL	0.05 µg/mL	0.39 µg/mL	0.05 µg/mL	0.05 µg/mL	0.05 µg/mL	0.1 µg/mL	0.05 µg/mL	0.05 µg/mL	0.05 µg/mL	0.05 µg/mL	0.05 µg/mL	MIC ([1]; Staphylococcus aureus, 209P): 0.0125 µg/mL; MIC ([2]; IID670): 0.0125 µg/mL; MIC [3, 13]: 0.05 µg/mL; MIC ([4]; NIHJJC2): 0.0125 µg/mL; MIC (S. pneumoniae 3227; [15]): 0.05 µg/mL; MIC (S. pyogenes 4372; [16]): 0.05 µg/mL; ED50 (S. pneumoniae S-4288): 10 mg/kg
CCn1cc(C(=O)O)c(=O)c2cc(F)c(N3CCNCC3)cc21 [NFLX, Norfloxacin, reference compound]	0.78 µg/mL (≈ 2.44 µM)	0.78 µg/mL (≈ 2.44 µM)	3.13 µg/mL (≈ 9.8 µM)	3.13 µg/mL (≈ 9.8 µM)	0.025 µg/mL (≈ 0.0783 µM)	0.05 µg/mL (≈ 0.157 µM)	0.05 µg/mL (≈ 0.157 µM)	0.1 µg/mL (≈ 0.313 µM)	0.05 µg/mL (≈ 0.157 µM)	0.05 µg/mL (≈ 0.157 µM)	0.78 µg/mL (≈ 2.44 µM)	25 µg/mL (≈ 78.3 µM)	1.56 µg/mL (≈ 4.89 µM)	6.25 µg/mL (≈ 19.6 µM)	6.25 µg/mL (≈ 19.6 µM)	3.13 µg/mL (≈ 9.8 µM)	3.13 µg/mL (≈ 9.8 µM)	3.13 µg/mL (≈ 9.8 µM)	6.25 µg/mL (≈ 19.6 µM)	6.25 µg/mL (≈ 19.6 µM)	MIC ([3]; Streptococcus pyogenes): 1.56 µg/mL (≈ 4.89 µM); MIC [4, 14]: 0.025 µg/mL (≈ 0.0783 µM); MIC (S. pneumoniae 2950; 2950): 12.5 µg/mL (≈ 39.1 µM); MIC (S. pneumoniae 3227; 3227): 12.5 µg/mL (≈ 39.1 µM); MIC (S. pyogenes 4372; 4372): 1.56 µg/mL (≈ 4.89 µM); MIC (M. pneumoniae Mac.): 3.13 µg/mL (≈ 9.8 µM)
